The record followed here is patent US10004701B2, “Methods and compositions for treating infection” (UNIVERSITY OF ROCHESTER, priority 2012, dated 2018).

SMILES strings stand for the structures. Structures can show the parent of a compound that is named as a salt. Where two headings read alike, the source gives them in different places.

Holding throughout (test): AK assay 384-well format, Prestwick library screening
One assay deals with E. faecium. The assay is classed as cell-based, Enterococcus faecium. The settings on record: Enterococcus faecium, 3 h, 50 μM final drug concentration.
The test system of assay [1] is S. aureus strain USA300-0114. Format: cell-based, Staphylococcus aureus. As to conditions: Staphylococcus aureus, USA300, 3 h, 50 μM final drug concentration.
In the next assay the test system is K. pneumoniae. Format: cell-based, Klebsiella pneumoniae. As to conditions: Klebsiella pneumoniae, 3 h, 50 μM final drug concentration.
The test system of assay [2] is A. baumannii strain 98-37-09. Format: cell-based, Acinetobacter baumannii. As to conditions: Acinetobacter baumannii, 983709, 3 h, 50 μM final drug concentration.
For the next assay, the system named is P. aeruginosa. Format: cell-based, Pseudomonas aeruginosa. The settings on record: Pseudomonas aeruginosa, 3 h, 50 μM final drug concentration.
For the next assay, the system named is E. cloacae. Format: cell-based, Enterobacter cloacae. The settings on record: Enterobacter cloacae, 3 h, 50 μM final drug concentration.
The subject of another assay is E. coli. The assay is classed as cell-based, Escherichia coli. As to conditions: Escherichia coli, 3 h, 50 μM final drug concentration.
Setting [3] is: planktonic E. faecium, 384-well, cutoff for positive-scoring molecules 3-fold increase, read-out: AK-based Prestwick Library Screening Results: E. faecium (increase in extracellular AK activity).
[4] abbreviates: planktonic S. aureus, 384-well, cutoff for positive-scoring molecules 3-fold increase, read-out: AK-based Prestwick Library Screening Results: S. aureus (increase in extracellular AK activity).
The mark [5] stands for this setting: planktonic K. pneumoniae, 384-well, cutoff for positive-scoring molecules 3-fold increase, read-out: AK-based Prestwick Library Screening Results: K. pneumoniae (increase in extracellular AK activity).
[6] abbreviates: planktonic A. baumannii, 384-well, cutoff for positive-scoring molecules 3-fold increase, read-out: AK-based Prestwick Library Screening Results: A. baumannii (increase in extracellular AK activity).
[7] abbreviates: planktonic P. aeruginosa, 384-well, cutoff for positive-scoring molecules 3-fold increase, read-out: AK-based Prestwick Library Screening Results: P. aeruginosa (increase in extracellular AK activity).
Setting [8] is: planktonic E. cloacae, 384-well, cutoff for positive-scoring molecules 3-fold increase, read-out: AK-based Prestwick Library Screening Results: E. cloacae (increase in extracellular AK activity).
The mark [9] stands for this setting: planktonic E. coli, 384-well, cutoff for positive-scoring molecules 3-fold increase, read-out: AK-based Prestwick Library Screening Results: E. coli (increase in extracellular AK activity).
[10] abbreviates: planktonic E. faecium, cutoff for positive-scoring molecules 3-fold increase, read-out: AK-based Prestwick Library Screening Results, E. faecium (increase in extracellular AK activity).
Where [11] appears, read: planktonic S. aureus, cutoff for positive-scoring molecules 3-fold increase, read-out: AK-based Prestwick Library Screening Results, S. aureus (increase in extracellular AK activity).
[12] abbreviates: planktonic K. pneumoniae, cutoff for positive-scoring molecules 3-fold increase, read-out: AK-based Prestwick Library Screening Results, K. pneumoniae (increase in extracellular AK activity).
The mark [13] stands for this setting: planktonic A. baumannii, cutoff for positive-scoring molecules 3-fold increase, read-out: AK-based Prestwick Library Screening Results, A. baumannii (increase in extracellular AK activity).
Where [14] appears, read: planktonic P. aeruginosa, cutoff for positive-scoring molecules 3-fold increase, read-out: AK-based Prestwick Library Screening Results, P. aeruginosa (increase in extracellular AK activity).
Where [15] appears, read: planktonic E. cloacae, cutoff for positive-scoring molecules 3-fold increase, read-out: AK-based Prestwick Library Screening Results, E. cloacae (increase in extracellular AK activity).
Where [16] appears, read: planktonic E. coli, cutoff for positive-scoring molecules 3-fold increase, read-out: AK-based Prestwick Library Screening Results, E. coli (increase in extracellular AK activity).
[17] abbreviates: planktonic, cutoff for positive 3-fold increase, read-out: AK-based Prestwick Library Screening Results, E. faecium (fold increase in extracellular AK activity).
[18] abbreviates: planktonic, cutoff for positive 3-fold increase, read-out: AK-based Prestwick Library Screening Results, S. aureus (fold increase in extracellular AK activity).
Where [19] appears, read: planktonic, cutoff for positive 3-fold increase, read-out: AK-based Prestwick Library Screening Results, K. pneumoniae (fold increase in extracellular AK activity).
Setting [20] is: planktonic, cutoff for positive 3-fold increase, read-out: AK-based Prestwick Library Screening Results, A. baumannii (fold increase in extracellular AK activity).
Where [21] appears, read: planktonic, cutoff for positive 3-fold increase, read-out: AK-based Prestwick Library Screening Results, P. aeruginosa (fold increase in extracellular AK activity).
Where [22] appears, read: planktonic, cutoff for positive 3-fold increase, read-out: AK-based Prestwick Library Screening Results, E. cloacae (fold increase in extracellular AK activity).
Setting [23] is: planktonic, cutoff for positive 3-fold increase, read-out: AK-based Prestwick Library Screening Results, E. coli (fold increase in extracellular AK activity).

For `C[C@]12CC[C@@H]3c4ccc(O)cc4CC[C@H]3[C@@H]1C[C@@H](O)[C@@H]2O` [Estriol], the fold induction at 50 µM came out at 1.1 with E. faecium (planktonic E. faecium, positive cutoff 3-fold increase, read-out: AK-based Prestwick library screening result, E. faecium (fold increase in extracellular AK activity)); 1.2 in assay [1] (planktonic S. aureus, positive cutoff 3-fold increase, read-out: AK-based Prestwick library screening result, S. aureus (fold increase in extracellular AK activity)); 0.8 in the assay on K. pneumoniae (planktonic K. pneumoniae, positive cutoff 3-fold increase, read-out: AK-based Prestwick library screening result, K. pneumoniae (fold increase in extracellular AK activity)); 1.2 in assay [2] (planktonic A. baumannii, positive cutoff 3-fold increase, read-out: AK-based Prestwick library screening result, A. baumannii (fold increase in extracellular AK activity)); 1 in the assay with P. aeruginosa (planktonic P. aeruginosa, positive cutoff 3-fold increase, read-out: AK-based Prestwick library screening result, P. aeruginosa (fold increase in extracellular AK activity)); 1.4 with E. cloacae (planktonic E. cloacae, positive cutoff 3-fold increase, read-out: AK-based Prestwick library screening result, E. cloacae (fold increase in extracellular AK activity)). Further, the fold induction at 50 µM in the assay with E. coli (planktonic E. coli, positive cutoff 3-fold increase, read-out: AK-based Prestwick library screening result, E. coli (fold increase in extracellular AK activity)) was found to be 1.1.
On to `Clc1ccc(COC(Cn2ccnc2)c2ccc(Cl)cc2Cl)c(Cl)c1` (stereo not drawn) [Miconazole], for which the fold induction at 50 µM in the assay on E. faecium (setting [3]) was found to be 2.5; in assay [1] (setting [4]) it was 2.2; in the assay with K. pneumoniae (setting [5]), 1.4; in assay [2] (setting [6]) it was 4.7; with P. aeruginosa (setting [7]), 1.2; in the assay with E. cloacae (setting [8]) it was 1.6. Besides, in the assay on E. coli (setting [9]), the fold induction at 50 µM was 1.4.
As for `CCS(=O)(=O)CCn1c([N+](=O)[O-])cnc1C` [Tinidazole], the fold induction at 50 µM in the assay on E. faecium (planktonic, cutoff for positive-scoring molecules 3-fold increase, read-out: AK-based Prestwick Library Screening Results, E. faecium (fold increase in extracellular AK activity)) worked out at 0.9; in assay [1] (planktonic, cutoff for positive-scoring molecules 3-fold increase, read-out: AK-based Prestwick Library Screening Results, S. aureus (fold increase in extracellular AK activity)), 1.2; in the assay with K. pneumoniae (planktonic, cutoff for positive-scoring molecules 3-fold increase, read-out: AK-based Prestwick Library Screening Results, K. pneumoniae (fold increase in extracellular AK activity)), 0.8; in assay [2] (planktonic, cutoff for positive-scoring molecules 3-fold increase, read-out: AK-based Prestwick Library Screening Results, A. baumannii (fold increase in extracellular AK activity)), 1; with P. aeruginosa (planktonic, cutoff for positive-scoring molecules 3-fold increase, read-out: AK-based Prestwick Library Screening Results, P. aeruginosa (fold increase in extracellular AK activity)), 1.1; in the assay on E. cloacae (planktonic, cutoff for positive-scoring molecules 3-fold increase, read-out: AK-based Prestwick Library Screening Results, E. cloacae (fold increase in extracellular AK activity)), 1.5. In addition, in the assay with E. coli (planktonic, cutoff for positive-scoring molecules 3-fold increase, read-out: AK-based Prestwick Library Screening Results, E. coli (fold increase in extracellular AK activity)), the fold induction at 50 µM stood at 1.2.
Consider `CCN(CC)CCNC(=O)c1ccc(N)cc1` [Procainamide hydrochloride], for which the fold induction at 50 µM in the assay on E. faecium (setting [10]) is 1; in assay [1] (setting [11]), 0.6; in the assay on K. pneumoniae (setting [12]), 0.6; in assay [2] (setting [13]), 0.7; in the assay on P. aeruginosa (setting [14]), 0.6; in the assay with E. cloacae (setting [15]) it was 0.9. For the same molecule, the fold induction at 50 µM with E. coli (setting [16]) is 0.6.
As to `CN(C)c1ccc(O)c2c1C[C@H]1C[C@H]3[C@H](N(C)C)C(O)=C(C(N)=O)C(=O)[C@@]3(O)C(O)=C1C2=O` [Minocycline hydrochloride], the fold induction at 50 µM was 1.1 in the assay on E. faecium (setting [3]); 6.9 in assay [1] (setting [4]); 0.6 with K. pneumoniae (setting [5]); 3.9 in assay [2] (setting [6]); 0.7 in the assay with P. aeruginosa (setting [7]); 0.9 in the assay with E. cloacae (setting [8]). Further, the fold induction at 50 µM in the assay with E. coli (setting [9]) turned out to be 2.3.
As for `NCc1ccccc1CC(=O)N[C@@H]1C(=O)N2C(C(=O)O)=C(CSc3nnnn3CC(=O)O)CS[C@H]12` [Ceforanide], the fold induction at 50 µM in the assay on E. faecium (setting [17]) stood at 1; in assay [1] (setting [18]), 1.8; in the assay on K. pneumoniae (setting [19]), 3.1; in assay [2] (setting [20]), 1.8; in the assay on P. aeruginosa (setting [21]), 1.2; in the assay on E. cloacae (setting [22]) it was 1.9. Besides, the fold induction at 50 µM in the assay on E. coli (setting [23]) amounted to 12.2.
As to `CCN(CC)CCNc1ccc(CO)c2sc3ccccc3c(=O)c12` [Hycanthone], the fold induction at 50 µM with E. faecium (setting [10]) stood at 1.2; in assay [1] (setting [11]) it was 0.8; in the assay with K. pneumoniae (setting [12]) it was 0.7; in assay [2] (setting [13]), 0.8; in the assay on P. aeruginosa (setting [14]), 0.8; with E. cloacae (setting [15]) it was 1.1. Moreover, the fold induction at 50 µM in the assay with E. coli (setting [16]) turned out to be 0.9.
Take `C[C@]12CC[C@H]3[C@@H](CC[C@]4(O)C[C@@H](O)CC[C@]34C=O)[C@@]1(O)CC[C@@H]2C1=CC(=O)OC1` [Strophanthidin]: the fold induction at 50 µM came to 1 in the assay on E. faecium ([…], read-out: AK-based Prestwick Library Screening Results, E. faecium (fold increase in extracellular AK activity)); 1.3 in assay [1] ([…], read-out: AK-based Prestwick Library Screening Results, S. aureus (fold increase in extracellular AK activity)); 1.1 in the assay on K. pneumoniae ([…], read-out: AK-based Prestwick Library Screening Results, K. pneumoniae (fold increase in extracellular AK activity)); 1.3 in assay [2] ([…], read-out: AK-based Prestwick Library Screening Results, A. baumannii (fold increase in extracellular AK activity)); 1.1 in the assay with P. aeruginosa ([…], read-out: AK-based Prestwick Library Screening Results, P. aeruginosa (fold increase in extracellular AK activity)); 1.3 in the assay with E. cloacae ([…], read-out: AK-based Prestwick Library Screening Results, E. cloacae (fold increase in extracellular AK activity)). In addition, the fold induction at 50 µM in the assay on E. coli ([…], read-out: AK-based Prestwick Library Screening Results, E. coli (fold increase in extracellular AK activity)) was 1.4.
`Cc1nc2ccccn2c(=O)c1CCN1CCC(C(=O)c2ccc(F)cc2)CC1` [Pirenperone]: the fold induction at 50 µM in the assay with E. faecium (setting [17]) came to 1.1; in assay [1] (setting [18]) it was 1.1; in the assay with K. pneumoniae (setting [19]) it was 1; in assay [2] (setting [20]) it was 1.2; with P. aeruginosa (setting [21]), 1.2; in the assay on E. cloacae (setting [22]) it was 1.5. Moreover, in the assay on E. coli (setting [23]), the fold induction at 50 µM is 1.1.
